# According to patent US20240190890A1, “MK2 INHIBITORS AND USES THEREOF” (Bristol-Myers Squibb Company, priority 2022, published 2024):
# pIC50: −log10 of the molar value.
# Biological target: p38a activated, mitogen-activated protein kinase-activated protein kinase 2 (MAPKAP-K2 or MK2) enzyme (Homo sapiens (Human), UniProt P49137)
# Assay: MK2 Omnia continuous-read kinase assay for compound potency
# Assay type: biochemical
# Settings: [MK-2]=0.4 nM, [ATP]=10 μM, [ST3-Sox]=10 μM; room temperature
# Method in brief: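 Continuous Sox-peptide fluorescence read (ex360/em485) every 71 s over 2 h at room temperature. Reactions: 10 μM each of ATP (at apparent Km) and S/T3-Sox, 0.4 nM p38a-activated MK2, pH 7.5 Tris/MgCl2 buffer. Initial rates yield % inhibition and IC50; single-exponential kobs values yield apparent kinact/KI.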
# p38a activated, mitogen-activated protein kinase-activated protein kinase 2 (MAPKAP-K2 or MK2) enzyme, sequence (P49137 whole entry): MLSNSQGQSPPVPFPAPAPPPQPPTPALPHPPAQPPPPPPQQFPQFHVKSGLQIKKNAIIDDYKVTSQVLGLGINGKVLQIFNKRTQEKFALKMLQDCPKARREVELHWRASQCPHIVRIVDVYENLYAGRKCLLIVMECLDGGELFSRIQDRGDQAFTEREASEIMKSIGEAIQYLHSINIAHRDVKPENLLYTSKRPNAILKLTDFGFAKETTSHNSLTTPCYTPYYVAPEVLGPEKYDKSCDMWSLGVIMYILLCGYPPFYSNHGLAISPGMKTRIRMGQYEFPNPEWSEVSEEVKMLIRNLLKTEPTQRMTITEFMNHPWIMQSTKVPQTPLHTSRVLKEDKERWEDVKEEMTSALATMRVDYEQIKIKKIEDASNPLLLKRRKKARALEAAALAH
row,pIC50,Compound
1,6.96,"C=Cc1cncc(-c2ccc3c(ccc4sc5c(c43)NC[C@@H](C)NC5=O)n2)n1 [Example I-163, (R)-10-methyl-3-(6-vinylpyrazin-2-yl)-9,10,11,12-tetrahydro-8H-[1,4]diazepino[5′,6′:4,5]thieno[3,2-f]quinolin-8-one]"
2,7.23,"C=Cc1cc(-c2ccc3c(ccc4sc5c(c43)NC[C@@H](C)NC5=O)n2)c(Cl)cn1 [Example I-143, (R)-3-(5-chloro-2-vinylpyridin-4-yl)-10-methyl-9,10,11,12-tetrahydro-8H-[1,4]diazepino[5′,6′:4,5]thieno[3,2-f]quinolin-8-one]"
3,6.82,"C#Cc1cc(-c2ccc3c(ccc4sc5c(c43)NC[C@@H](C)NC5=O)n2)cc(C)n1 [Example I-112, (R)-3-(2-ethynyl-6-methylpyridin-4-yl)-10-methyl-9,10,11,12-tetrahydro-8H-[1,4]diazepino[5′,6′:4,5]thieno[3,2-f]quinolin-8-one]"
4,7.05,"C[C@@H]1CNc2c(sc3ccc4nc(-c5cncc(Cl)c5)ccc4c23)C(=O)N1 [Example I-81, (R)-3-(5-chloropyridin-3-yl)-10-methyl-9,10,11,12-tetrahydro-8H-[1,4]diazepino[5′,6′:4,5]thieno[3,2-f]quinolin-8-one]"
5,8.52,"C#Cc1cc(-c2ccc3c(ccc4sc5c(c43)NC[C@@H](C)NC5=O)n2)nc(N2CCN(C)CC2)n1 [Example I-59, (R)-3-(6-ethynyl-2-(4-methylpiperazin-1-yl)pyrimidin-4-yl)-10-methyl-9,10,11,12-tetrahydro-8H-[1,4]diazepino[5′,6′:4,5]thieno[3,2-f]quinolin-8-one]"
6,6.74,"C=Cc1nc(-c2ccc3c(ccc4sc5c(c43)NC[C@@H](C)NC5=O)n2)cnc1C [Example I-166, (R)-10-methyl-3-(5-methyl-6-vinylpyrazin-2-yl)-9,10,11,12-tetrahydro-8H-[1,4]diazepino[5′,6′:4,5]thieno[3,2-f]quinolin-8-one]"
7,7.28,"C/C=C/c1cc(-c2ccc3c(ccc4sc5c(c43)NC[C@@H](C)NC5=O)n2)ccn1 [Example I-113, (R,E)-10-methyl-3-(2-(prop-1-en-1-yl)pyridin-4-yl)-9,10,11,12-tetrahydro-8H-[1,4]diazepino[5′,6′:4,5]thieno[3,2-f]quinolin-8-one]"
8,6.82,"C[C@@H]1CNc2c(sc3ccc4nc(-c5nc(Cl)ncc5F)ccc4c23)C(=O)N1 [Example I-273, (R)-3-(2-chloro-5-fluoropyrimidin-4-yl)-10-methyl-9,10,11,12-tetrahydro-8H-[1,4]diazepino[5′,6′:4,5]thieno[3,2-f]quinolin-8-one]"
9,7.96,"C[C@@H]1CNc2c(sc3ccc4nc(-c5ccnc(/C=C/CN(C)C)c5)ccc4c23)C(=O)N1 [Example I-114, (R,E)-3-(2-(3-(dimethylamino)prop-1-en-1-yl)pyridin-4-yl)-10-methyl-9,10,11,12-tetrahydro-8H-[1,4]diazepino[5′,6′:4,5]thieno[3,2-f]quinolin-8-one]"
10,7.89,"C=Cc1cc(-c2ccc3c(ccc4sc5c(c43)NC[C@@H](C)NC5=O)n2)ncn1 [Example I-34, (R)-10-methyl-3-(6-vinylpyrimidin-4-yl)-9,10,11,12-tetrahydro-8H-[1,4]diazepino[5′,6′:4,5]thieno[3,2-f]quinolin-8-one]"
11,7.01,"[2H]C([2H])([2H])N1CCN(c2cc(-c3ccc4c(ccc5sc6c(c54)NC[C@@H](C)NC6=O)n3)cc(C#C)n2)CC1 [Example I-172, (R)-3-(2-ethynyl-6-(4-(methyl-d3)piperazin-1-yl)pyridin-4-yl)-10-methyl-9,10,11,12-tetrahydro-8H-[1,4]diazepino[5′,6′:4,5]thieno[3,2-f]quinolin-8-one]"
12,7.96,"C=Cc1cc(-c2ccc3c(ccc4sc5c(c43)NCC(C)NC5=O)n2)cc(N2CC3CC2CO3)n1 (racemic) [Example I-216, rac-(10R)-3-(2-(2-oxa-5-azabicyclo[2.2.1]heptan-5-yl)-6-vinylpyridin-4-yl)-10-methyl-9,10,11,12-tetrahydro-8H-[1,4]diazepino[5′,6′:4,5]thieno[3,2-f]quinolin-8-one]"
13,6.69,"C=Cc1cc(-c2ccc3c(ccc4sc5c(c43)NC[C@@H](C)NC5=O)n2)cc(CN2CCC(OC(F)(F)F)CC2)n1 [Example I-189, (R)-10-methyl-3-(2-((4-(trifluoromethoxy)piperidin-1-yl)methyl)-6-vinylpyridin-4-yl)-9,10,11,12-tetrahydro-8H-[1,4]diazepino[5′,6′:4,5]thieno[3,2-f]quinolin-8-one]"
14,8.52,"C=Cc1cc(-c2ccc3c(ccc4sc5c(c43)NC[C@@H](C)NC5=O)n2)c(C(=O)OC)nn1 [Example I-137, methyl (R)-4-(10-methyl-8-oxo-9,10,11,12-tetrahydro-8H-[1,4]diazepino[5′,6′:4,5]thieno[3,2-f]quinolin-3-yl)-6-vinylpyridazine-3-carboxylate]"
15,6.01,"C[C@@H]1CNc2c(sc3ccc4nc(-c5cc(Cl)nnc5OCCN5CCCC5)ccc4c23)C(=O)N1 [Example I-119, (R)-3-(6-chloro-3-(2-(pyrrolidin-1-yl)ethoxy)pyridazin-4-yl)-10-methyl-9,10,11,12-tetrahydro-8H-[1,4]diazepino[5′,6′:4,5]thieno[3,2-f]quinolin-8-one]"
16,8.40,"[2H]c1c(C=C)ncc(C([2H])([2H])[2H])c1-c1ccc2c(ccc3sc4c(c32)NC[C@@H](C)NC4=O)n1 [Example I-249, (R)-10-methyl-3-(5-(methyl-d3)-2-vinylpyridin-4-yl-3-d)-9,10,11,12-tetrahydro-8H-[1,4]diazepino[5′,6′:4,5]thieno[3,2-f]quinolin-8-one]"
17,6.00,"C=Cc1cc(C(F)(F)F)n(-c2ccc3c(ccc4sc5c(c43)NC[C@@H](C)NC5=O)n2)n1 [Example I-257, (R)-10-methyl-3-(5-(trifluoromethyl)-3-vinyl-1H-pyrazol-1-yl)-9,10,11,12-tetrahydro-8H-[1,4]diazepino[5′,6′:4,5]thieno[3,2-f]quinolin-8-one]"
18,8.05,"C=Cc1nncn1-c1ccc2c(ccc3sc4c(c32)NC[C@@H](C)NC4=O)n1 [Example I-203, (R)-10-methyl-3-(3-vinyl-4H-1,2,4-triazol-4-yl)-9,10,11,12-tetrahydro-8H-[1,4]diazepino[5′,6′:4,5]thieno[3,2-f]quinolin-8-one]"
19,8.10,"C=Cc1cc(-c2ccc3c(ccc4sc5c(c43)NC[C@@H](C)NC5=O)n2)cc(C)n1 [Example I-110, (R)-10-methyl-3-(2-methyl-6-vinylpyridin-4-yl)-9,10,11,12-tetrahydro-8H-[1,4]diazepino[5′,6′:4,5]thieno[3,2-f]quinolin-8-one]"
20,7.59,"C[C@@H]1CNc2c(sc3ccc4nc(-c5cc(N6CCN(C)CC6)nc(Cl)n5)ccc4c23)C(=O)N1 [Example I-16, (R)-3-(2-chloro-6-(4-methylpiperazin-1-yl)pyrimidin-4-yl)-10-methyl-9,10,11,12-tetrahydro-8H-[1,4]diazepino[5′,6′:4,5]thieno[3,2-f]quinolin-8-one]"
21,6.37,"C=C(C)c1ncc(F)c(-c2ccc3c(ccc4sc5c(c43)NC[C@@H](C)NC5=O)n2)n1 [Example I-47, (R)-3-(5-fluoro-2-(prop-1-en-2-yl)pyrimidin-4-yl)-10-methyl-9,10,11,12-tetrahydro-8H-[1,4]diazepino[5′,6′:4,5]thieno[3,2-f]quinolin-8-one]"
22,6.76,"C=Cc1cc(-c2ccc3c(ccc4sc5c(c43)NC[C@@H](C)NC5=O)n2)cc(N2CC(F)(F)C2)n1 [Example I-184, (R)-3-(2-(3,3-difluoroazetidin-1-yl)-6-vinylpyridin-4-yl)-10-methyl-9,10,11,12-tetrahydro-8H-[1,4]diazepino[5′,6′:4,5]thieno[3,2-f]quinolin-8-one]"
23,6.33,"C[C@@H]1CNc2c(sc3ccc4nc(-c5nc(Cl)ncc5CO)ccc4c23)C(=O)N1 [Example I-75, (R)-3-(2-chloro-5-(hydroxymethyl)pyrimidin-4-yl)-10-methyl-9,10,11,12-tetrahydro-8H-[1,4]diazepino[5′,6′:4,5]thieno[3,2-f]quinolin-8-one]"
24,6.89,"C=Cc1nscc1-c1ccc2c(ccc3sc4c(c32)NC[C@@H](C)NC4=O)n1 [Example I-228, (R)-10-methyl-3-(3-vinylisothiazol-4-yl)-9,10,11,12-tetrahydro-8H-[1,4]diazepino[5′,6′:4,5]thieno[3,2-f]quinolin-8-one]"
25,8.10,"C=Cc1cc(-c2ccc3c(ccc4sc5c(c43)NC[C@@H](C)NC5=O)n2)cc(C2CCN(C)CC2)n1 [Example I-106, (R)-10-methyl-3-(2-(1-methylpiperidin-4-yl)-6-vinylpyridin-4-yl)-9,10,11,12-tetrahydro-8H-[1,4]diazepino[5′,6′:4,5]thieno[3,2-f]quinolin-8-one]"
26,6.44,"C=Cc1cc(-c2ccc3c(ccc4sc5c(c43)NC[C@@H](C)NC5=O)n2)c(OC(F)F)cn1 [Example I-247, (R)-3-(5-(difluoromethoxy)-2-vinylpyridin-4-yl)-10-methyl-9,10,11,12-tetrahydro-8H-[1,4]diazepino[5′,6′:4,5]thieno[3,2-f]quinolin-8-one]"
27,7.41,"C=Cc1cnc(C)c(-c2ccc3c(ccc4sc5c(c43)NC[C@@H](C)NC5=O)n2)n1 [Example I-181, (R)-10-methyl-3-(3-methyl-6-vinylpyrazin-2-yl)-9,10,11,12-tetrahydro-8H-[1,4]diazepino[5′,6′:4,5]thieno[3,2-f]quinolin-8-one]"

row,Compound,pIC50
1,"C[C@@H]1CNc2c(sc3ccc4nc(-c5cc(Cl)nc(C6=CCN(C)CC6)c5)ccc4c23)C(=O)N1 [Example I-100, (R)-3-(6-chloro-1′-methyl-1′,2′,3′,6′-tetrahydro-[2,4′-bipyridin]-4-yl)-10-methyl-9,10,11,12-tetrahydro-8H-[1,4]diazepino[5′,6′:4,5]thieno[3,2-f]quinolin-8-one]",7.21
